Data reported in publication PMC11126936, “Reactivating Hippo by drug compounds to suppress gastric cancer and enhance chemotherapy sensitivity” (The Journal of Biological Chemistry, 2024).
“Also recorded” adds a separate entry of the source. Where two headings read alike, the source gives them in different places.

Columns and labels:
STRN3–MST2 interaction = molecular target: T1, STRN3–MST2 interaction (Homo sapiens, UniProt Q13188); test: MBP/GST pull-down and Co-IP, STRN3–MST2; assay type: binding
T1 construct: GST-tagged MST2 (amino acid 1–308), MBP-tagged MST2 (amino acid 1–308); made in house; host or cells: E. coli BL21 Codon plus (DE3)

HGC-27 cells [1] = test: Cell viability assay in HGC-27 cells; assay type: cell-based, human; conditions: for IC50: read-out: IC50 values in HGC-27 cells; for effect of addition of copper ion on suppression of HGC-27 cell viability by the compound: compound-Cu complex vs compound
MST2^Mut (L33/E35/V41A) = molecular target: T2, MST2^Mut (L33/E35/V41A) (Homo sapiens, UniProt Q13188, E35A/L33A/V41A); test: MST assay, binding to MST2 mutant; conditions: L33/E35/V41 substituted with alanine
T2 construct: the mutant MBP-tagged MST2 (amino acid 1–308, L33/E35/V41A); MBP; made in house; host or cells: E. coli BL21 Codon plus (DE3)
T2 sequence (Q13188 1-308 L33A/E35A/V41A): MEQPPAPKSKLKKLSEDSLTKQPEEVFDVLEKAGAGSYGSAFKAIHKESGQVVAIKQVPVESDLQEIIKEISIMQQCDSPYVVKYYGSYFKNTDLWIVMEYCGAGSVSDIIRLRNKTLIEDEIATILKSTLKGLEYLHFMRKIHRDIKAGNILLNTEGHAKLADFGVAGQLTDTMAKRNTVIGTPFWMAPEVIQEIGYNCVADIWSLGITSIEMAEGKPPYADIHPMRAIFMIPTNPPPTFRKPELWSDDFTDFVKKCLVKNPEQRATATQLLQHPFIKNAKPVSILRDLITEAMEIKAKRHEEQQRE

MST2 = molecular target: T3, MST2 (Homo sapiens, UniProt Q13188); test: MST assay, binding to MST2
T3 construct: made in house; host or cells: E. coli BL21 Codon plus (DE3)
T3 sequence (Q13188 1-491): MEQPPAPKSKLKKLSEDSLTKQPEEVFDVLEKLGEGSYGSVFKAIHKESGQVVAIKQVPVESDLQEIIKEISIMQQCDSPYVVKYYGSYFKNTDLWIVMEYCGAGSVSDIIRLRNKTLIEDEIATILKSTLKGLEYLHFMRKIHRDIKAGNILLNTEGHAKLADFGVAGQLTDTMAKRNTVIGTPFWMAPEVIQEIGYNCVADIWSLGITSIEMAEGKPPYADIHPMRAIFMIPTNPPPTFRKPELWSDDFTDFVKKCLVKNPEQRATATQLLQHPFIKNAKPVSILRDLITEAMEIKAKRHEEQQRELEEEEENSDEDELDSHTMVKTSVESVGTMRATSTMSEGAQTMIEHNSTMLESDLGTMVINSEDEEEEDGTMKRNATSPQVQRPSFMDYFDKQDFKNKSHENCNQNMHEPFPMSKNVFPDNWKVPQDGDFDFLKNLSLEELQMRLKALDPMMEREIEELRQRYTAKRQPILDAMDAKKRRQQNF

[2] = test system: YAP target gene CTGF in HGC-27 cells; test: CTGF mRNA (qPCR) in HGC-27 cells; conditions: 48 h
MKN-28 cells = test: Killing efficiency in MKN-28 cells; assay type: cell-based, human; conditions: 1 μM CX and 20 μM cisplatin
HEK293A cells = test: DNA repair after etoposide (residual γ-H2AX immunoblot); assay type: cell-based; conditions: 20 μM etoposide 2 h, then with or without compound 6 h
HGC-27 cells [3] = test: Colony formation assay in HGC-27 cells; conditions: about 2 weeks
Description: After about 2 weeks incubation, cell colonies were identified by their being stained with 1% crystal violet dye. And colonies with diameters of >1 mm were counted.

mice = conditions: ref [65]; cited from earlier work
MNNG-induced GC tumors = test: MNNG-induced GC mouse model; conditions: 50 mg/kg per day DSF vs control mice
AGS cells xenograft = test: AGS xenograft tumor model; conditions: intratumoral injection, five consecutive days, vs control
Description: Briefly, healthy male 615 mice were maintained in pathogen-free conditions. Mice were first injected with 2 × 10^6 AGS cells/per mouse into their flanks to induce tumor formation. Once the tumor volume reached about 100 mm^3, mice were injected intratumorally with indicted inhibitors for five successive days. Two weeks later, the mice were euthanized and then their tumors were harvested and weighed.

PP2Aa–STRN3 interaction [4] = molecular target: T4, PP2Aa–STRN3 interaction (Homo sapiens, UniProt P30153); test: GST pulldown assay, PP2Aa–STRN3; assay type: binding; design: GST; SUMO; made in house; host or cells: E. coli BL21 Codon plus (DE3); conditions: recombinant GST-PP2Aa and His-Sumo-STRN3; up to 10 μM compound
Target sequence in this assay (P30153 8-589): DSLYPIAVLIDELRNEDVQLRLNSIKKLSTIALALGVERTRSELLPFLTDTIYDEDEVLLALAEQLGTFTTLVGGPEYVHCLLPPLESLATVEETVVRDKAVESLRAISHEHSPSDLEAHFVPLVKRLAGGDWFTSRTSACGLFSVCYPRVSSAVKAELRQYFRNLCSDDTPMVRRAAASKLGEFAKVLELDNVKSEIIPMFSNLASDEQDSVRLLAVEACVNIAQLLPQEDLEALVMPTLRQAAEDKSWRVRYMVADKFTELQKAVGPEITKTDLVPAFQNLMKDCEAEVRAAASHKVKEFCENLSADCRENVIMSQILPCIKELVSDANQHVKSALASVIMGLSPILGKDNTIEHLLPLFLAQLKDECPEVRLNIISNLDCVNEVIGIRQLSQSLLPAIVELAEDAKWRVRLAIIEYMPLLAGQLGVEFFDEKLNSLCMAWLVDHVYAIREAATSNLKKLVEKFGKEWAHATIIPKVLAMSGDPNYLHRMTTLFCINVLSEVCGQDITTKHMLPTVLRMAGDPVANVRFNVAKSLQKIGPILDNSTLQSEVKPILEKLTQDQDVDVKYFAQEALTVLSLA

PP2Aa–STRN3 interaction [5] = molecular target: T4, PP2Aa–STRN3 interaction; test: Co-IP of HA-PP2Aa and Flag-STRN3 in HEK293A cells; assay type: cell-based; design: expressed in transfected cells; host or cells: HEK293A
Target sequence in this assay (P30153 whole entry): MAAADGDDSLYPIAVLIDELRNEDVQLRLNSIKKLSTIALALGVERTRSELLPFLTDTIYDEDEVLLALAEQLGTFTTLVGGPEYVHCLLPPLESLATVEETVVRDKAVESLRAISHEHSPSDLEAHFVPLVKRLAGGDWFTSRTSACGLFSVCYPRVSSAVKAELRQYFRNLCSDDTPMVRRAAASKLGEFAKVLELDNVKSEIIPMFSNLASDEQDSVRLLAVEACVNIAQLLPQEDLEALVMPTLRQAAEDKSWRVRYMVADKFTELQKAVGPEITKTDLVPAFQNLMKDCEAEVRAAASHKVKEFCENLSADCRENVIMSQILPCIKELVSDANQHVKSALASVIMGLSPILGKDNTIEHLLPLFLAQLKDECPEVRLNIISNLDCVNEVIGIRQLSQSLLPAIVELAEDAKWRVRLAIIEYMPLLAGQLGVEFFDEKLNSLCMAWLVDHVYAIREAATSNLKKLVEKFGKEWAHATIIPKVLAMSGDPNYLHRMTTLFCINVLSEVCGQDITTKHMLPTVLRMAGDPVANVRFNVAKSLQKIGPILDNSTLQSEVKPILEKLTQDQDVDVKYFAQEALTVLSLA

YAP phosphorylation = conditions: HEK293A, Flag-YAP
STRN3 = molecular target: T5, STRN3 (Homo sapiens, UniProt Q13033); test: ITC binding to STRN3
T5 construct: His-SUMO; made in house; host or cells: E. coli BL21 Codon plus (DE3)
T5 sequence (Q13033 64-145): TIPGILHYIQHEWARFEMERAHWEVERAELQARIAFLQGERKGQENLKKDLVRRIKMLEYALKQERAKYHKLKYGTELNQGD
Description: (§1) ITC experiments were conducted using an iTC200 instrument from Microcal at 25 °C. […] Each titration included a single […] injection followed by 19 sequential injections of […] aliquots, with a spacing of 300 s between the injections, and stirring at 1000 rpm. Data were analyzed using the ITC data analysis software (MicroCal Software, https://www.malvernpanalytical.com/en/support/product-support/software/microcal-peaq-itc-analysis-software-v141).

zebrafish larvae = conditions: ref [65], [66]; cited from earlier work
PP2Aa [6] = molecular target: T6, PP2Aa (Homo sapiens, UniProt P30153); test: MST assay, binding to PP2Aa; conditions: for effect on binding of STRN3 to PP2Aa: compound added
T6 construct: GST; made in house; host or cells: E. coli BL21 Codon plus (DE3)
T6 sequence (P30153 8-589): as the sequence (P30153 8-589) above

PP2Aa [7] = molecular target: T6, PP2Aa; test: ITC binding to PP2Aa; conditions: 25 °C
Description: as §1

GES-1 cells = test: Cell viability of non-cancerous gastric epithelial GES-1 cells; conditions: Homo sapiens, GES1, read-out: IC50 value, GES-1 cells
AGS cells = test: Killing efficiency in AGS cells; assay type: cell-based, human; conditions: 0.1 μM TH and 10 μM cisplatin
[8] = test system: YAP target gene CTGF in GES-1 cells; test: CTGF mRNA (qPCR) in GES-1 cells; conditions: 48 h

Compound: CN1CCCN(C(=O)c2cccc(-c3ccc(C=C4C(=O)Nc5ccc(Cl)cc54)o3)c2)CC1 [CX, CX-6258]
- STRN3–MST2 interaction in MBP pull-down (STRN3–MST2 interaction): able to disrupt
- inhibition of HGC-27 cell growth / viability (HGC-27 cells [1]; result in words): significantly inhibit; also recorded: inhibited the cell viability; also recorded: comparable with DSF
- binding to MST2^Mut (MST2^Mut (L33/E35/V41A)): failed to bind with CX
- Kd (MST2): 339 nM
- effect on STRN3–MST2 binding (MST2; in the presence of compound): could not bind with each other in the presence of CX
- mRNA levels of YAP target gene CTGF [2]: dose-dependently decreased
- sensitization of GC cells to cisplatin (MKN-28 cells): greatly sensitized GC cells to cisplatin
- DNA repair (residual γ-H2AX) (HEK293A cells): markedly attenuated the repair
- colony formation of HGC-27 cells (HGC-27 cells [3]): inhibited

Compound: CCN(CC)C(=S)SSC(=S)N(CC)CC [DSF, disulfiram]
- IC50 (HGC-27 cells [1]; cell viability, listed as Disulfiram): 390 nM
- IC50 (HGC-27 cells [1]; cell viability): < 5000 nM
- effect of addition of copper ion on suppression of HGC-27 cell viability by the compound (HGC-27 cells [1]): further dramatically enhanced
- in vivo side effects in mice (mice): reduction of body weight and glucose excretion
- Ctgf expression in tumors (RNA-Scope) (MNNG-induced GC tumors): sharp decrease
- area of tumors (MNNG-induced GC tumors): substantially smaller
- tumor weight / tumor growth (AGS cells xenograft): modestly lower tumor weights
- PP2Aa–STRN3 association in GST pulldown (PP2Aa–STRN3 interaction [4]): dramatically reduced
- PP2Aa–STRN3 interaction in Co-IP (PP2Aa–STRN3 interaction [5]): dramatically decreased
- mRNA levels of YAP target gene CTGF [2]: significantly reduced
- level of pYAP^Ser (YAP phosphorylation): dose-dependently increased
- level of pYAP^Tyr (YAP phosphorylation): marginal effect
- binding to STRN3 (STRN3): can specifically bind to PP2Aa but not STRN3
- adverse effects in zebrafish larvae (zebrafish larvae): adverse effects
- Kd (PP2Aa [6]): 4.9 µM
- effect on binding of STRN3 to PP2Aa (PP2Aa [6]): readily disrupted the binding of STRN3 to PP2Aa
- colony formation of HGC-27 cells (HGC-27 cells [3]): significantly inhibited colony formation
- Kd (PP2Aa [7]): 4.1 µM
- IC50 (GES-1 cells): 1290 nM

Compound: CN(C)C(=S)SSC(=S)N(C)C [TH, thiram]
- IC50 (HGC-27 cells [1]; Homo sapiens, HGC-27, cell viability): 400 nM
- effect of addition of copper ion on suppression of HGC-27 cell viability by the compound (HGC-27 cells [1]): markedly enhanced
- PP2Aa–STRN3 association in GST pulldown (PP2Aa–STRN3 interaction [4]): efficiently disrupt
- sensitization of GC cells to cisplatin (AGS cells): significantly sensitized GC cells to cisplatin
- mRNA levels of YAP target gene CTGF [8]: no significant change
- PP2Aa–STRN3 interaction in Co-IP (PP2Aa–STRN3 interaction [5]): further validated by Co-IP assay
- DNA repair (residual γ-H2AX) (HEK293A cells): decreased
- adverse effects in zebrafish larvae (zebrafish larvae): adverse effects
- Kd (PP2Aa [6]): 1.52 µM
- binding affinity to PP2Aa relative to that of STRN3 to PP2Aa (PP2Aa [6]): 14 fold
- effect on binding of STRN3 to PP2Aa (PP2Aa [6]): efficiently disrupt
- colony formation of HGC-27 cells (HGC-27 cells [3]): significantly inhibited colony formation
